Measured values taken from ChEMBL document CHEMBL1201862, “PubChem BioAssay data set” (2004).
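Interpolation was linear, between the two tested concentrations surrounding the appropriate level; five concentrations were tested over 48 hours in 96-well plates. Abbreviation: GI50, concentration required for 50% inhibition of growth.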 Calls of active or inactive are those of the source. No stated cut-off is given here; in the data, active = GI50 up to about 1.1 µM and inactive = higher.

Assays:
Test in all cases: growth of human tumour cells (NCI), 48 h
HOP-62 = test system: HOP-62
HCT-15 = test system: HCT-15
OVCAR-3 = test system: OVCAR-3
T47D = test system: T47D
HCC 2998 = test system: HCC 2998
MDA-N = test system: MDA-N
RPMI-8226 = test system: RPMI-8226
M14 = test system: M14
CAKI-1 = test system: CAKI-1
NCI-H460 = test system: NCI-H460
ACHN = test system: ACHN
A498 = test system: A498
786-0 = test system: 786-0
COLO 205 = test system: COLO 205
RXF 393 = test system: RXF 393
PC-3 = test system: PC-3
NCI-H522 = test system: NCI-H522
NCI-H23 = test system: NCI-H23
HT-29 = test system: HT-29
SF-295 = test system: SF-295
NCI/ADR-RES = test system: NCI/ADR-RES
NCI-H226 = test system: NCI-H226
Hs-578T = test system: Hs-578T
IGROV-1 = test system: IGROV-1
U-251 = test system: U-251
LOX IMVI = test system: LOX IMVI
CCRF-CEM = test system: CCRF-CEM
SF-268 = test system: SF-268
OVCAR-8 = test system: OVCAR-8
A549 = test system: A549
MCF7 = test system: MCF7
KM12 = test system: KM12
SK-MEL-5 = test system: SK-MEL-5
DU-145 = test system: DU-145
UO-31 = test system: UO-31
SF-539 = test system: SF-539
EKVX = test system: EKVX
SW-620 = test system: SW-620
TK-10 = test system: TK-10
OVCAR-5 = test system: OVCAR-5
UACC-257 = test system: UACC-257
K562 = test system: K562
HCT-116 = test system: HCT-116
OVCAR-4 = test system: OVCAR-4
SK-OV-3 = test system: SK-OV-3
UACC-62 = test system: UACC-62
SNB-75 = test system: SNB-75
MDA-MB-231 = test system: MDA-MB-231
SK-MEL-2 = test system: SK-MEL-2
SK-MEL-28 = test system: SK-MEL-28
SNB-19 = test system: SNB-19
Malme-3M = test system: Malme-3M
SN12C = test system: SN12C
MDA-MB-435 = test system: MDA-MB-435
HL-60 = test system: HL-60
MOLT-4 = test system: MOLT-4
SR = test system: SR

O=C1NC(c2cccc(OCc3ccccc3)c2)Nc2ccccc21 (configuration not stated)
GI50 (HOP-62): 359 nM (active)
GI50 (HCT-15): 80.5 nM
GI50 (OVCAR-3): 100 nM (active)
GI50 (T47D): 19100 nM (inactive)
GI50 (HCC 2998): 243 nM (active)
GI50 (MDA-N): 18.7 nM (active)
GI50 (RPMI-8226): 41.6 nM (active)
GI50 (M14): 181 nM (active)
GI50 (CAKI-1): 628 nM (active)
GI50 (NCI-H460): 208 nM (active)
GI50 (ACHN): 442 nM (active)
GI50 (A498): 259 nM (active)
GI50 (786-0): 286 nM (active)
GI50 (COLO 205): 191 nM (active)
GI50 (RXF 393): 110 nM (active)
GI50 (PC-3): 162 nM (active)
GI50 (NCI-H522): 213 nM (active)
GI50 (NCI-H23): 424 nM (active)
GI50 (HT-29): 120 nM (active)
GI50 (SF-295): 114 nM (active)
GI50 (NCI/ADR-RES): 117 nM (active)
GI50 (NCI-H226): 274 nM (active)
GI50 (Hs-578T): 241 nM (active)
GI50 (IGROV-1): 500 nM (active)
GI50 (U-251): 232 nM (active)
GI50 (LOX IMVI): 252 nM (active)
GI50 (CCRF-CEM): 47.9 nM (active)
GI50 (SF-268): 541 nM (active)
GI50 (OVCAR-8): 315 nM (active)
GI50 (A549): 130 nM (active)
GI50 (MCF7): 34 nM (active)
GI50 (KM12): 17500 nM (inactive)
GI50 (SK-MEL-5): 32.6 nM (active)
GI50 (DU-145): 172 nM (active)
GI50 (UO-31): 4550 nM (inactive)
GI50 (SF-539): 201 nM (active)
GI50 (EKVX): 339 nM (active)
GI50 (SW-620): 93.8 nM (active)
GI50 (TK-10): 603 nM (active)
GI50 (OVCAR-5): 374 nM (active)
GI50 (UACC-257): 1360 nM (inactive)
GI50 (K562): 18.9 nM (active)
GI50 (HCT-116): 46.5 nM (active)
GI50 (OVCAR-4): 13700 nM (inactive)
GI50 (SK-OV-3): 307 nM (active)
GI50 (UACC-62): 495 nM (active)
GI50 (SNB-75): 70.3 nM (active)
GI50 (MDA-MB-231): 251 nM (active)
GI50 (SK-MEL-2): 1670 nM (inactive)
GI50 (SK-MEL-28): 309 nM (active)
GI50 (SNB-19): 324 nM (active)
GI50 (Malme-3M): 89.7 nM (active)
GI50 (SN12C): 119 nM (active)
GI50 (MDA-MB-435): 23 nM (active)
GI50 (HL-60): < 18.4 nM (active)
GI50 (MOLT-4): 230 nM (active)
GI50 (SR): < 29.8 nM (active)
